In test [1] the target is T1, BRD4 (Homo sapiens, UniProt O60885).
T1 construct: 45 nM His-Brd4(44-477) all proteins produced in-house
The experiment in a line: TR-FRET in-vitro binding assay for BRD4. The settings on record: Biochemical IC50 values, His-Brd4(44-477). The method, then:
(§1) TR-FRET In-Vitro Binding Assays for BRD2, BRD3, and BRD4:
(§2) All assays were performed in 384-well microtiter plates. Each assay plate contained 8-point serial dilutions for 40 test compounds, plus 16 high- and 16 low controls. Liquid handling and incubation steps were done on an Innovadyne Nanodrop Express equipped with a robotic arm (Thermo CatX, Perkin Elmer/Caliper Twister II) and an incubator (Liconic STX40, Thermo Cytomat 2C450). The assay plates were prepared by addition of 50n1 per well of compound solution in 90% DMSO HummingBird nanodispenser (Zinsser Analytic). […] Reactions were incubated at 30° C. for 35 minutes. […] After 35 minutes incubation at 30° C., plates were measured in a Perkin Elmer EnVision multilabel reader.
(§3) Preparation of Compound Dilutions
(§4) Test compounds were dissolved in DMSO (10 mM) and transferred into 1.4 mL flat bottom or V-shaped Matrix tubes carrying a unique 2D matrix. The stock solutions were stored at […] if not used immediately. For the test procedure the vials were defrosted and identified by a scanner whereby a working sheet was generated that guided the subsequent working steps. Compound dilutions were made in 96 well plates. This format enabled the assay of maximally 40 individual test compounds at 8 concentrations (single points) including 4 reference compounds, if desired (known BET inhibitors from the prior art, for this and other assays of the type disclosed herein). The dilution protocol included the production of “pre-dilution plates”, “master plates” and “assay plates”.
(§5) Polypropylene 96-well plates were used as pre-dilution plates. […] All dilution steps were done on a HamiltonSTAR robot.
(§6) These plates were used directly for the assay which was performed in a total volume of 13.55 μL.
(In general: TR-FRET usually uses a lanthanide donor and a delayed reading to cut background.)

The target in test [2] is T2, BRD2 (Homo sapiens, UniProt P25440).
T2 construct: 45 nM His-Brd2(60-472) or 45 nM His-Brd3(20-477)
T2 sequence (P25440 60-472): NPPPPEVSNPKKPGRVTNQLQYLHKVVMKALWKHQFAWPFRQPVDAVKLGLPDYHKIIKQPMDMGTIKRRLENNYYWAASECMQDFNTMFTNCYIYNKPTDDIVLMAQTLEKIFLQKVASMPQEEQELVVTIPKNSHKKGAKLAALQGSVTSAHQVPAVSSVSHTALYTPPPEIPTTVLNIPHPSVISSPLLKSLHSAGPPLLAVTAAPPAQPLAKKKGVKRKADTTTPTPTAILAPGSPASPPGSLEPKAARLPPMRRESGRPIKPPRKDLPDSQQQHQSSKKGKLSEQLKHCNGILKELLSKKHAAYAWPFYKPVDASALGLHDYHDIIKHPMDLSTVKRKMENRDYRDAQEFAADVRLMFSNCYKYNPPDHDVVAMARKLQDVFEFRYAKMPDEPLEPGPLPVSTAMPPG
The experiment in a line: TR-FRET in-vitro binding assay for BRD2. The settings on record: Biochemical IC50 values, His-Brd2(60-472). The method, then:
as §1, §2, §3, §4, §5, §6

Test [3] concerns the target T3, BRD3 (Homo sapiens, UniProt Q15059).
T3 construct: 45 nM His-Brd3(20-477) or 45 nM His-Brd4(44-477)
Put plainly: TR-FRET in-vitro binding assay for BRD3. As to conditions: Biochemical IC50 values, His-Brd3(20-477). The method, then: as §1, §2, §3, §4, §5, §6

Test [4] relates to THP-1 cells. The experiment in a line: Cell growth inhibition assay (CellTiter-Glo), THP-1. Type of test: cell-based. As to conditions: Homo sapiens. A digest of the protocol:
(§7)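 Leukemia lines grown in their own media were exposed for 4 days at 37° C. to 3-fold serial dilutions from 10 μM (0.1% DMSO). Viability by CellTiter-Glo ATP luminescence, corrected for background and day-0 plate; IC50 and TGI from four-parameter fit against vehicle (100%) and medium (−100%).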
In general terms: Cellular ATP, detected with luciferase, serves as a proxy for viable cell number.

Test [5] concerns the target T4, CREBBP (Homo sapiens, UniProt Q92793).
T4 construct: 324 nM His-CREBBP(1081-1197) (custom production at Viva Biotech Ltd.)
Put plainly: AlphaScreen in-vitro binding assay for CREBBP. As to conditions: Biochemical IC50 values, His-CREBBP(1081-1197). The procedure: AlphaScreen In-Vitro Binding Assay for CREBBP
In order to assess bromodomain selectivity, we set up a binding assay using the bromodomain encoded by the CREBBP gene. […] Reactions were incubated at 30° C. for 35 minutes. Subsequently 4.5 μL per well detection mix (50 mM HEPES, pH 7.5, 0.005% Tween20, 0.02% BSA, 150 mM NaCl, 45 μg/ml Ni-chelate acceptor beads, 45 μg/mL streptavidin-donor beads) (Perkin Elmer)) were added. After 60 minutes incubation at room temperature, plates were measured in a Perkin Elmer EnVision multilabel reader. IC50 values were determined from percent inhibition values at different compound concentrations by non-linear regression analysis.
as §3
Test compounds were dissolved in DMSO (10 mM) and transferred into 1.4 mL flat bottom or V-shaped Matrix tubes carrying a unique 2D matrix. The stock solutions were stored at […] if not used immediately. For the test procedure the vials were defrosted and identified by a scanner whereby a working sheet was generated that guided the subsequent working steps. Compound dilutions were made in 96 well plates. This format enabled the assay of maximally 40 individual test compounds at 8 concentrations (single points) including 4 reference compounds, if desired (known BET inhibitors from the prior art, for this and other assays of the type disclosed herein). […]
Background: In Alpha technology, singlet oxygen from a donor bead excites a nearby acceptor bead.

Test [6] deals with MV-4-11 cells. Put plainly: Cell growth inhibition assay (CellTiter-Glo), MV-4-11. The class given is cell-based. The settings on record: Homo sapiens, MV4-11. A digest of the protocol: as §7
Test [7] has as its system K-562 cells. The experiment in a line: Cell growth inhibition assay (CellTiter-Glo), K-562. As to conditions: for GI50: Homo sapiens, K562. Type of test: cell-based, human. Put shortly:
as §7

Each structure is given as a SMILES string.

T3 sequence (Q15059 20-477): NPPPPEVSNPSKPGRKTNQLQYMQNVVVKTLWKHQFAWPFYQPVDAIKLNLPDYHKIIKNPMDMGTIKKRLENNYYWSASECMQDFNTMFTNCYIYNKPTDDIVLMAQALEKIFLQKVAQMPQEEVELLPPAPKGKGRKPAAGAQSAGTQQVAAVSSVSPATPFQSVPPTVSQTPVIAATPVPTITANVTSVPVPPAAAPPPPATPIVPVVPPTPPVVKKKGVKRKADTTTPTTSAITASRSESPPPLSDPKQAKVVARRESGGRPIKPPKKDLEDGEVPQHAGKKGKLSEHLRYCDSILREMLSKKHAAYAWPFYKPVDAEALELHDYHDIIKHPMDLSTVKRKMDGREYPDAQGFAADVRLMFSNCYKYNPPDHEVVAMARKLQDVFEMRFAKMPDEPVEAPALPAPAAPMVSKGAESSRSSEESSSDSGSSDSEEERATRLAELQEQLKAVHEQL
T4 sequence (Q92793 1081-1197): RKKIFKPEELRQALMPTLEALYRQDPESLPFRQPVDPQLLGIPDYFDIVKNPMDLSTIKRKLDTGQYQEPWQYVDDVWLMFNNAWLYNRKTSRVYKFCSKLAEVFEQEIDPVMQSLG

Broadly, the IC50 is the point on the concentration scale where inhibition reaches its midpoint. The low end stands for higher potency, the high end for lower potency. Take `Cc1cc(N2C(=O)c3nn(C)cc3[C@@H]2c2ccc(Cl)cc2)cn(C)c1=O` [Example 15, (S)-4-(4-chlorophenyl)-5-(1,5-dimethyl-6-oxo-1,6-dihydropyridin-3-yl)-2-methyl-4,5-dihydropyrrolo[3,4-c]pyrazol-6(2H)-one]: the IC50 in test [1] and in test [2] was > 6.7 µM throughout.

For the compound `Cc1nn(C2CC2)c2c1[C@H](c1ccc(Cl)cc1)N(c1cc(Cl)c(=O)n(C)c1)C2=O` [Example 50, (S)-5-(5-chloro-1-methyl-6-oxo-1,6-dihydropyridin-3-yl)-4-(4-chlorophenyl)-1-cyclopropyl-3-methyl-4,5-dihydropyrrolo[3,4-c]pyrazol-6(1H)-one], the IC50 in test [3] and in test [1] was > 6.7 µM in each case.

As usually defined, the GI50 is the concentration giving 50% growth inhibition. Low readings indicate more potent growth inhibition, high ones less potent growth inhibition. Turning to `Cc1nn(C2CC2)c2c1[C@H](c1ccc(Cl)cc1)N(c1cc(C)c3nnc(C)n3c1)C2=O` [Example 118, (S)-4-(4-chlorophenyl)-1-cyclopropyl-5-(3,8-dimethyl-[1,2,4]triazolo[4,3-a]pyridin-6-yl)-3-methyl-4,5-dihydropyrrolo-[3,4-c]pyrazol-6(1H)-one], the GI50 in test [4] is 3.16 µM; in test [6], 1.64 µM; in test [7], > 10 µM. Further, the IC50 in test [5] and in test [3] was > 37 µM throughout. Besides, in test [7], the IC (TGI) is >10 µM.

On to `COc1ncc(-n2nc3c(c2C(C)C)[C@H](c2ccc(Cl)cc2)N(c2cc(C)c4onc(C)c4c2)C3=O)c(OC)n1` [Example 61, (S)-4-(4-chlorophenyl)-2-(2,4-dimethoxypyrimidin-5-yl)-5-(3,7-dimethylbenzo[d]isoxazol-5-yl)-3-isopropyl-4,5-dihydropyrrolo-[3,4-c]pyrazol-6(2H)-one], for which the figures for the 50% growth inhibitory concentration (GI50) in test [4], in test [6] and in test [7] were 2.43 µM, 0.948 µM and > 10 µM, respectively. For the same compound, the IC50 in test [2] is > 37 µM.

Regarding `Cc1nn(C2CC2)c2c1C(c1ccc(Cl)cc1)N(c1cc(C)c(=O)n(C)c1)C2=O` (racemic) [Example 23, 4-(4-chlorophenyl)-1-cyclopropyl-5-(1,5-dimethyl-6-oxo-1,6-dihydropyridin-3-yl)-3-methyl-4,5-dihydropyrrolo-[3,4-c]pyrazol-6(1H)-one], the IC50 was found to be 3.9 µM in test [5], 0.074 µM in test [3] and 0.099 µM in test [2].

In the case of `COCc1nn(C2CC2)c2c1C(c1ccc(Cl)cc1)N(c1cc(C)c3nnc(C)n3c1)C2=O` (stereo not drawn) [Example 130, 4-(4-chlorophenyl)-1-cyclopropyl-5-(3,8-dimethyl-[1,2,4]triazolo[4,3-a]pyridin-6-yl)-3-(methoxymethyl)-4,5-dihydropyrrolo[3,4-c]pyrazol-6(1H)-one], the GI50 in test [4] was determined as 0.0357 µM; in test [6], 0.0161 µM; in test [7], 0.195 µM. Besides, the IC (TGI) in test [7] is on record as >10 µM.

Regarding `Cc1nn(C[C@H](O)C(F)(F)F)c2c1[C@@H](c1ccc(Cl)cc1)N(c1cc(C)c3nnc(C)n3c1)C2=O` [Example 167, (R)-4-(4-chlorophenyl)-5-(3,8-dimethyl-[1,2,4]triazolo[4,3-a]pyridin-6-yl)-3-methyl-1-((S)-3,3,3-trifluoro-2-hydroxypropyl)-4,5-dihydropyrrolo-[3,4-c]pyrazol-6(1H)-one], the GI50 is 0.0596 µM in test [4], 0.0276 µM in test [6] and 0.294 µM in test [7].

Take `COc1ncccc1-n1nc(C)c2c1C(=O)N(c1cc(C)c(=O)n(C)c1)C2c1ccc(Cl)cc1` (stereo not drawn) [Example 71, 4-(4-chlorophenyl)-5-(1,5-dimethyl-6-oxo-1,6-dihydropyridin-3-yl)-1-(2-methoxypyridin-3-yl)-3-methyl-4,5-dihydropyrrolo-[3,4-c]pyrazol-6(1H)-one]: the GI50 in test [4] was 0.0756 µM; in test [6], 0.0666 µM; in test [7], 0.345 µM. In test [7], the IC (TGI) is on record as >10 µM.

As to `Cc1nn(C(=O)N(C)C)c2c1[C@@H](c1ccc(Cl)cc1)N(c1cc(C)c3nnc(C)n3c1)C2=O` [Example 149, (R)-4-(4-chlorophenyl)-5-(3,8-dimethyl-[1,2,4]triazolo[4,3-a]pyridin-6-yl)-N,N,3-trimethyl-6-oxo-5,6-dihydropyrrolo-[3,4-c]pyrazole-1(4H)-carboxamide], the values for the concentration for 50% growth inhibition (GI50) in test [4], in test [6] and in test [7] were 0.0688 µM, 0.028 µM and 0.348 µM, respectively.

With `Cc1ncccc1-n1nc2c(c1C)C(c1ccc(Cl)cc1)N(c1cc(C)c(=O)n(C)c1)C2=O` (stereo not drawn) [Example 81, 4-(4-chlorophenyl)-5-(1,5-dimethyl-6-oxo-1,6-dihydropyridin-3-yl)-3-methyl-2-(2-methylpyridin-3-yl)-4,5-dihydropyrrolo-[3,4-c]pyrazol-6(2H)-one], the GI50 was 0.261 µM in test [4], 0.0956 µM in test [6] and 0.883 µM in test [7].

Consider `Cc1c2c(nn1C(C)C)C(=O)N(c1cc(Cl)c(=O)n(C)c1)C2c1ccc(Cl)cc1` (stereo not drawn) [Example 65, 5-(5-chloro-1-methyl-6-oxo-1,6-dihydropyridin-3-yl)-4-(4-chlorophenyl)-2-isopropyl-3-methyl-4,5-dihydropyrrolo-[3,4-c]pyrazol-6(2H)-one], for which the GI50 in test [4] amounted to 0.121 µM; in test [6], 0.0675 µM; in test [7], 0.554 µM.

In the case of `CCn1nc2c(c1C)C(c1ccc(F)cc1F)N(c1cc(C)c3nnc(C)n3c1)C2=O` (stereo not drawn) [Example 182, 4-(2,4-difluorophenyl)-5-(3,8-dimethyl-[1,2,4]triazolo[4,3-a]pyridin-6-yl)-2-ethyl-3-methyl-4,5-dihydropyrrolo-[3,4-c]pyrazol-6(2H)-one], the GI50 in test [4] is 0.0876 µM; in test [6], 0.0633 µM; in test [7], 0.281 µM.

On to `CCOc1c2c(nn1C)C(=O)N(c1cc(C)c(=O)n(C)c1)C2c1ccc(Cl)cc1` (stereo not drawn) [Example 76, 4-(4-chlorophenyl)-5-(1,5-dimethyl-6-oxo-1,6-dihydropyridin-3-yl)-3-ethoxy-2-methyl-4,5-dihydropyrrolo-[3,4-c]pyrazol-6(2H)-one], for which the results for the GI50 in test [4], in test [6] and in test [7] were 0.14 µM, 0.0532 µM and 0.339 µM, respectively.

For `Cc1cc(N2C(=O)c3nn(C4CC4)c(C)c3[C@@H]2c2ccc(Cl)cc2)cn(C)c1=O` [Example 22, (S)-4-(4-chlorophenyl)-2-cyclopropyl-5-(1,5-dimethyl-6-oxo-1,6-dihydropyridin-3-yl)-3-methyl-4,5-dihydropyrrolo[3,4-c]pyrazol-6(2H)-one], the IC50 in test [3] and in test [1] was > 6.7 µM in each case.

Source of the values: patent publication US20160095843A1, “PYRAZOLOPYRROLIDINE DERIVATIVES AND THEIR USE IN THE TREATMENT OF DISEASE” (NOVARTIS AG, priority 2013, published 2016).
